Assay results taken from patent publication US20260097091A1, “ADMINISTRATION OF GLUTATHIONE TRISULFIDE TO AMELIORATE PERIPHERAL NEUROPATHY” (The General Hospital Corporation, priority 2022, published 2026).

Tests used:
[1] = tested on: intraepidermal nerve fibers of hind paws; test: density of intraepidermal nerve fibers in hind paw skin (immunohistochemistry); format: in vivo, mice (C57BL/6J); conditions: for density of intraepidermal nerve fibers: paclitaxel alone
Method: Paclitaxel (Sigma-Aldrich) was dissolved with ethanol and cremophor (1:1) and diluted with normal saline (1:4). Peripheral neuropathy was induced in mice by intraperitoneal (i.p.) administration of 4 mg/kg paclitaxel every other day for a total of 4 injections (cumulative dose of 16 mg/kg), according to a previously described protocol. A stable, crystallized form of GSSSG was produced and provided by Kyowa Hakko Bio CO., LTD. GSSSG was pulverized and mixed in 0.5% methylcellulose. To evaluate the therapeutic effects of GSSSG in a model of PIPN, mice were randomly divided into three groups of 6. Mice were treated with: 1) paclitaxel alone; 2) paclitaxel and GSSSG; 3) or vehicle alone (control). Mice in groups 1 and 2 received paclitaxel as described above, while mice in the control group received the same volume of vehicle. The first dose of GSSSG was given within 1 hour after the first PTX injection. Treatment was administered as oral gavage for 28 days with GSSSG at 50 mg/kg/day (group 2) or 0.5% methylcellulose (groups 1 and 3). The dose of GSSSG was determined based on pilot studies. To determine the effect of GSSSG on the development of PIPN, behavioral tests to assess allodynia and hyperalgesia were conducted on all mice on days-1 (baseline), 7, 14, 21, and 28 after paclitaxel administration. Behavioral tests were performed by an investigator who was blinded to the treatment groups, as described in the next section. Density of intraepidermal nerve fiber (fibers/mm) of hind paws was calculated to evaluate peripheral nerve fiber damage by paclitaxel. Mice were deeply anesthetized with Isoflurane (4%) and euthanized by exsanguination on week 1 or week 4 after paclitaxel treatment for tissue harvest. […] Ten images per mouse (6 mice per group) were taken by fluorescence microscopy (Nikon Eclipse 80i, Nikon Instruments, Inc., Melville, NY), and four out of ten images were randomly selected. The density (fibers/mm basement membrane) was calculated as the number of intraepidermal nerve fiber divided by the length of basement membrane in accordance with the guideline.

primary cortical neurons = test: Dihydroethidium (DHE) superoxide assay in primary cortical neurons; format: cell-based, mice
Method: Primary cortical neurons were prepared from the cortex of mice on embryonic day 15, as described previously. In brief, the embryo's cortex was isolated in Hanks' balanced salt solution and centrifuged at 176×g (1000 rpm) for 3 minutes. After aspirating the solution, cells were incubated with 0.25% trypsin for 15 minutes and seeded 20,000/well in a 96-well plate coated with the poly-D-lysin (Gibco, Cat No. A3890401). They were incubated in Neurobasal medium (Gibco, Cat No. 21103049) with 2% B27 supplement (Gibco, Cat No. 10889038), 1% penicillin/streptomycin, and 1% Glutamax (Gibco, Cat No. 35050061) until day 11 when they were used for experiments.
To examine whether GSSSG reduces ROS generated by paclitaxel, we conducted Dihydroethidium (DHE) assay (Abcam, Cat No. ab236206) that is sensitive to superoxide. The experiment was done according to protocol provided by the manufacturer. Briefly, primary cortical neurons were incubated in DHE reagent with or without 10 and 30 μM of GSSSG for 30 minutes. After incubating, 100 nM of paclitaxel was administered, and cells were incubated for one hour. Fluorescence of DHE was measured at 490 nm of excitation and 585 nm of emission wavelength.

[2] = tested on: Nrf2-dependent antioxidant signaling in DRG; test: real-time qPCR of antioxidant genes in lumbar DRG; format: in vivo, mice; conditions: 2 hours after single 16 mg/kg paclitaxel i.p. with or without 50 mg/kg GSSSG oral
Method: Changes in gene expression in lumber dorsal root ganglions (DRG) induced by paclitaxel and GSSSG were examined with real-time qPCR after a single administration of paclitaxel with or without GSSSG. We simultaneously administered 16 mg/kg paclitaxel by intraperitoneal injection and 50 mg/kg GSSSG by oral gavage and examined the mRNA expression 2 hours later. Lumbar DRG were isolated from mice as described previously. Removed DRG were immersed in RNA later (Invitrogen, Cat No. AM7020) at 4° C. overnight. After retrieving from RNA later, they were stored at −80° C. DRGs were homogenized in TRIzol reagent (ThermoFisher Scientific, Cat No. 15596026) and mixed with chloroform. After centrifugation at 14000×g at 4° C. for 15 minutes, the transparent top layer was transferred to a new tube. The samples were mixed with 400 μl of isopropanol and incubated at −20° C. for 20 minutes. After centrifugation at 14000×g at 4° C. for 15 minutes, the pellets were collected, mixed with 70% ethanol, and centrifuged at 14000×g at 4° C. for 10 minutes. The pellets were dried for 10 minutes and incubated with 50 μl of nuclease-free water. Complementary DNA was synthesized using the cDNA Reverse Transcription Kit (Applied Biosystems, Cat No. 4368814) and quantitative PCR was performed by using SYBR green (Applied Biosystems, Cat No. A46109). Relative quantification of gene expression was performed via 2^−ΔΔCT method.

| density of intraepidermal nerve fibers ([1]; 1 week after starting paclitaxel) | intracellular levels of superoxide (DHE) (primary cortical neurons; 100 nM paclitaxel for one hour, vs control) | SMILES | density of intraepidermal nerve fibers ([1]; 4 weeks after starting paclitaxel) | Nrf2 mRNA levels [2] | expression of GCLC [2] | expression of HO1 [2] | levels of NQO1 mRNA [2] | paclitaxel-induced loss of intraepidermal nerve fibers ([1]; daily oral 50 mg/kg GSSSG in paclitaxel-treated mice, 4 weeks after starting paclitaxel) | paclitaxel-induced increase of intracellular superoxide (DHE) (primary cortical neurons; 10 μM GSSSG co-incubation with 100 nM paclitaxel, vs paclitaxel) |
| --- | --- | --- | --- | --- | --- | --- | --- | --- | --- |
| not at 1 week | increased | CC(=O)O[C@H]1C(=O)[C@@]2(C)[C@H]([C@H](OC(=O)c3ccccc3)[C@]3(O)C[C@H](OC(=O)[C@H](O)[C@@H](NC(=O)c4ccccc4)c4ccccc4)C(C)=C1C3(C)C)[C@]1(OC(C)=O)CO[C@@H]1C[C@@H]2O [paclitaxel, Paclitaxel, reference compound] | decreased the density of intraepidermal nerve fibers at 4 weeks | increased Nrf2 mRNA levels | not paclitaxel alone | not paclitaxel alone | not paclitaxel alone | – | – |
| – | – | N[C@@H](CCC(=O)N[C@@H](CSSSC[C@H](NC(=O)CC[C@H](N)C(=O)O)C(=O)NCC(=O)O)C(=O)NCC(=O)O)C(=O)O [GSSSG, glutathione trisulfide] | – | increased Nrf2 mRNA levels | upregulated | upregulated | modestly increased | prevented paclitaxel-induced loss of intraepidermal nerve fibers | prevented the paclitaxel-induced increase of intracellular superoxide |
